Measurements: PubChem BioAssay AID330 (DTP/NCI, 2004)
Where “and” joins values, the source holds several entries; their conditions need not be identical. Equal values may be shown once. Inconclusive results and toxic doses are left out. The calls were made as follows: active = survival T/C of 150% or more; inactive = T/C below 125% in these data.

Test system: P388 leukemia ip, CD2F1 mice, survival T/C
Assay: NCI In Vivo Anticancer Drug Screen. Data for tumor model P388 Leukemia (intraperitoneal) in CD2F1 (CDF1) mice
Conditions: endpoint: median survival time, higher = longer survival
Procedure, shortened: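 Mice carrying the transplanted tumor received test compound or vehicle. Survival was recorded in each group, and the value is the treated-group measurement divided by that of the vehicle-treated control group.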

[1] = dose: 50.0 mg/kg/injection, schedule: Q01DX005 (ip), vehicle: saline with Tween-80
[2] = dose: 100.0 mg/kg/injection, schedule: Q01DX005 (ip), vehicle: saline with Tween-80
[3] = dose: 200.0 mg/kg/injection, schedule: Q01DX005 (ip), vehicle: saline with Tween-80
[4] = dose: 50.0 mg/kg/injection, schedule: Q01DX009 (ip), vehicle: saline with Tween-80
[5] = dose: 100.0 mg/kg/injection, schedule: Q01DX009 (ip), vehicle: saline with Tween-80
[6] = dose: 200.0 mg/kg/injection, schedule: Q01DX009 (ip), vehicle: saline with Tween-80
[7] = dose: 6.25 mg/kg/injection, schedule: Q01DX009 (ip), vehicle: saline with Tween-80
[8] = dose: 12.5 mg/kg/injection, schedule: Q01DX009 (ip), vehicle: saline with Tween-80
[9] = dose: 25.0 mg/kg/injection, schedule: Q01DX009 (ip), vehicle: saline with Tween-80
[10] = dose: 60.0 mg/kg/injection, schedule: Q01DX005 (ip), vehicle: saline with Tween-80
[11] = dose: 120.0 mg/kg/injection, schedule: Q01DX005 (ip), vehicle: saline with Tween-80
[12] = dose: 50.0 mg/kg/injection, schedule: Q01DX009 (ip), vehicle: saline
[13] = dose: 100.0 mg/kg/injection, schedule: Q01DX009 (ip), vehicle: saline
[14] = dose: 60.0 mg/kg/injection, schedule: Q01DX005 (ip), vehicle: Klucel (hydroxypropylcellulose) (HPC)
[15] = dose: 120.0 mg/kg/injection, schedule: Q01DX005 (ip), vehicle: Klucel (hydroxypropylcellulose) (HPC)
[16] = dose: 240.0 mg/kg/injection, schedule: Q01DX005 (ip), vehicle: Klucel (hydroxypropylcellulose) (HPC)

Measured: T/C

CSc1nc(NC(C)C)nc(NC(C)C)n1
inactive: dose: 50.0 mg/kg/injection, schedule: Q04DX003 (ip), vehicle: saline with Tween-80 100 % of control | dose: 100.0 mg/kg/injection, schedule: Q04DX003 (ip), vehicle: saline with Tween-80 91 % of control

C1=CC2C(c3cccc4ccccc34)O[C@H]2O1 (stereo not given in full)
inactive: dose: 7.5 mg/kg/injection, schedule: Q01DX005 (ip), vehicle: Klucel (hydroxypropylcellulose) (HPC) 97 % of control | dose: 15.0 mg/kg/injection, schedule: Q01DX005 (ip), vehicle: Klucel (hydroxypropylcellulose) (HPC) 97 % of control | dose: 30.0 mg/kg/injection, schedule: Q01DX005 (ip), vehicle: Klucel (hydroxypropylcellulose) (HPC) 97 % of control

Cc1ccc(S(=O)(=O)Oc2ccc3oc4c(CO)ccc(NCCN(C)C)c4c(=O)c3c2)cc1
inactive: [1] 97 % of control | [2] 96 % of control | [3] 96 % of control

CCCCCCCCCCCC(=O)OCCN(CCOC(=O)CCCCCCCCCCC)C(=O)c1ccccc1
inactive: [4] 95 % of control | [5] 100 % of control | [6] 93 % of control

COC(=O)c1nc(=S)[nH]c(C(=O)OC)c1C(=O)c1ccccc1
inactive: dose: 60.0 mg/kg/injection, schedule: Q01DX005 (ip), vehicle: Klucel + Tween-80 101 % of control | dose: 120.0 mg/kg/injection, schedule: Q01DX005 (ip), vehicle: Klucel + Tween-80 93 % of control | dose: 240.0 mg/kg/injection, schedule: Q01DX005 (ip), vehicle: Klucel + Tween-80 92 % of control

CCOC(=O)Cn1cc([N+](=O)[O-])sc1=NC(=O)c1ccco1
inactive: dose: 100.0 mg/kg/injection, schedule: Q01DX001 (ip), vehicle: Klucel (hydroxypropylcellulose) (HPC) 90 % of control | dose: 200.0 mg/kg/injection, schedule: Q01DX001 (ip), vehicle: Klucel (hydroxypropylcellulose) (HPC) 98 % of control | dose: 400.0 mg/kg/injection, schedule: Q01DX001 (ip), vehicle: Klucel (hydroxypropylcellulose) (HPC) 97 % of control

CCCCN(CCCC)CC(O)c1cc2ccc(C(F)(F)F)cc2c2cc(C(F)(F)F)ccc12 (stereo not given)
inactive: [7] 93 % of control | [8] 94 % of control | [9] 88 % of control | [5] 100 % of control | [6] 99 % of control

CC12CCC(N3CCCC3)CC1=CCC1C2CCC2(C)C1CCCN2CCO (stereo not given)
inactive: dose: 12.5 mg/kg/injection, schedule: Q01DX001 (ip), vehicle: Klucel (hydroxypropylcellulose) (HPC) 99 % of control | dose: 25.0 mg/kg/injection, schedule: Q01DX001 (ip), vehicle: Klucel (hydroxypropylcellulose) (HPC) 99 % of control | dose: 50.0 mg/kg/injection, schedule: Q01DX001 (ip), vehicle: Klucel (hydroxypropylcellulose) (HPC) 103 % of control

N#CNc1nnnn1-c1ccccc1 (tested in a mixture with another compound)
inactive: dose: 100.0 mg/kg/injection, schedule: Q04DX003 (ip), vehicle: Klucel (hydroxypropylcellulose) (HPC) 96 % of control | dose: 200.0 mg/kg/injection, schedule: Q04DX003 (ip), vehicle: Klucel (hydroxypropylcellulose) (HPC) 92 % of control | dose: 400.0 mg/kg/injection, schedule: Q04DX003 (ip), vehicle: Klucel (hydroxypropylcellulose) (HPC) 98 % of control

O=P(OCC(F)(F)F)(c1ccccc1)c1ccccc1
inactive: [1] 108 % of control | [2] 104 % of control | [3] 112 % of control

O=[N+]([O-])c1ccc(S(=O)(=O)Cc2ccccc2)c2nonc12
inactive: dose: 3.12 mg/kg/injection, schedule: Q01DX009 (ip), vehicle: saline with Tween-80 99 % of control | [7] 107 % of control | [8] 100 % of control

COc1ccc([N+](=O)[O-])cc1NC(=O)C1C(=O)C(=O)N(c2cc([N+](=O)[O-])ccc2OC)C1=O (stereo not given)
inactive: dose: 50.0 mg/kg/injection, schedule: Q01DX009 (ip), vehicle: Klucel (hydroxypropylcellulose) (HPC) 100 % of control | dose: 100.0 mg/kg/injection, schedule: Q01DX009 (ip), vehicle: Klucel (hydroxypropylcellulose) (HPC) 100 % of control | dose: 200.0 mg/kg/injection, schedule: Q01DX009 (ip), vehicle: Klucel (hydroxypropylcellulose) (HPC) 115 % of control

CCN1CC2(C)CCC(OC)C34C5CC6CCC(O)(C5C(=O)O6)C(C(OC(C)=O)C23)C14 (stereo not given)
inactive: dose: 3.0 mg/kg/injection, schedule: Q01DX009 (ip), vehicle: saline 100 % of control | dose: 6.0 mg/kg/injection, schedule: Q01DX009 (ip), vehicle: saline 101 % of control | dose: 12.0 mg/kg/injection, schedule: Q01DX009 (ip), vehicle: saline 98 % of control

O=C(N1CCN(C(=O)S(=O)(=O)c2ccc(F)cc2)CC1)S(=O)(=O)c1ccc(F)cc1
inactive: dose: 50.0 mg/kg/injection, schedule: Q01DX005 (ip), vehicle: Klucel (hydroxypropylcellulose) (HPC) 99 % of control | dose: 100.0 mg/kg/injection, schedule: Q01DX005 (ip), vehicle: Klucel (hydroxypropylcellulose) (HPC) 98 % of control | dose: 200.0 mg/kg/injection, schedule: Q01DX005 (ip), vehicle: Klucel (hydroxypropylcellulose) (HPC) 100 % of control

CCc1cccc(CC)c1NC(=O)c1ccc(C)cc1
inactive: [10] 91 % of control | [11] 86 % of control

CC1(C)CC(=O)C(=[N+]=[N-])C(=O)C1
inactive: dose: 7.5 mg/kg/injection, schedule: Q01DX005 (ip), vehicle: saline with Tween-80 105 % of control | dose: 15.0 mg/kg/injection, schedule: Q01DX005 (ip), vehicle: saline with Tween-80 105 % of control | dose: 30.0 mg/kg/injection, schedule: Q01DX005 (ip), vehicle: saline with Tween-80 102 % of control

Nc1ccccc1CN1C(=O)CCC1=O
inactive: [12] 105 % of control | [13] 101 % of control | dose: 200.0 mg/kg/injection, schedule: Q01DX009 (ip), vehicle: saline 99 % of control

O=C(O)C(CCc1nc2ccccc2[nH]1)NS(=O)(=O)c1ccccc1 (stereo not given)
inactive: [8] 115 % of control | [9] 95 % of control | [4] 103 % of control and 91 % of control | [5] 102 % of control | [6] 102 % of control

C=CCC(C(=O)OC)c1cc(OC)c(OC)c(OC)c1 (stereo not given)
inactive: dose: 1.25 mg/kg/injection, schedule: Q01DX009 (ip), vehicle: saline 97 % of control | dose: 2.5 mg/kg/injection, schedule: Q01DX009 (ip), vehicle: saline 100 % of control | dose: 5.0 mg/kg/injection, schedule: Q01DX009 (ip), vehicle: saline 115 % of control

CCOC(=O)c1ccc(N=C(C2=C(O)c3ccccc3C2=O)c2ccccc2)cc1
inactive: dose: 25.0 mg/kg/injection, schedule: Q04DX002 (ip), vehicle: saline with Tween-80 92 % of control | dose: 50.0 mg/kg/injection, schedule: Q04DX002 (ip), vehicle: saline with Tween-80 101 % of control | dose: 100.0 mg/kg/injection, schedule: Q04DX002 (ip), vehicle: saline with Tween-80 95 % of control

COCC(O)Cn1ccnc1N=Nc1ccccc1 (stereo not given)
inactive: [10] 103 % of control | [11] 102 % of control

CCN(CC)c1ccc2nc3c4ccccc4c(=NC(=O)c4ccccc4-c4c5ccc(N(CC)CC)cc5[o+]c5cc(N(CC)CC)ccc45)cc-3oc2c1
inactive: [12] 106 % of control | [13] 96 % of control

N#Cc1ccc(OC(=O)Nc2ccc(Br)cc2)cc1
inactive: [14] 115 % of control | [15] 114 % of control | [16] 108 % of control

Cc1ccccc1Nc1ccc([N+](=O)[O-])c2nonc12
inactive: [1] 103 % of control | [2] 98 % of control | [3] 92 % of control

Cc1ccc(S(=O)(=O)N/N=C2/C(=O)N(c3ccc(Cl)cc3C)C(=O)C(=O)C2c2nc3ccccc3s2)cc1 (stereo not given)
inactive: [10] 98 % of control | [11] 103 % of control | dose: 240.0 mg/kg/injection, schedule: Q01DX005 (ip), vehicle: saline with Tween-80 104 % of control

Cc1cc(NCCc2ccccc2)cc(=O)n1CCc1ccccc1
inactive: [14] 97 % of control | [15] 100 % of control | [16] 94 % of control

Cn1c2ccccc2c2nnc(-n3nc(-c4ccc(Br)cc4)cc3N)nc21
inactive: dose: 12.5 mg/kg/injection, schedule: Q01DX005 (ip), vehicle: saline with Tween-80 98 % of control | dose: 25.0 mg/kg/injection, schedule: Q01DX005 (ip), vehicle: saline with Tween-80 87 % of control | [2] 93 % of control | [3] 95 % of control

CN(C)CCCN1CC2CC=CCC2C1 (stereo not given)
inactive: dose: 50.0 mg/kg/injection, schedule: Q01DX005 (ip), vehicle: saline 99 % of control | dose: 100.0 mg/kg/injection, schedule: Q01DX005 (ip), vehicle: saline 99 % of control | dose: 200.0 mg/kg/injection, schedule: Q01DX005 (ip), vehicle: saline 100 % of control
